Consider six compounds from US3954726A, “Double salts of S-adenosil-L-methionine” (Bioresearch Limited, priority 1973, dated 1976).

Data set [1] is described as follows: Clinical: Parkinsons disease and Parkinsonisms, in association with Levodopa. The format is in vivo, human. Particulars: Levodopa alone.
The conditions of data set [2]: dry state.
Text: (§1) The figures refer to the percentage of SAM residue after the times indicated:
Data set [3] is described as follows: Toxicity, overall statement. Particulars: in vivo.
Data set [4] in a line: Acute toxicity (DL50) in the mouse. As to conditions: in vivo. The text has this: In particular, the DL50 in the mouse is greater than 6 g/kg/os and 2.5 g/kg/i.p.
Data set [5] is described as follows: Stability with time at 45°C, dry state (percentage of SAM residue). As to conditions: same conditions as Table 1.
Text: as §1
A short description of data set [6]: Hepatic phospholipids in rats after intoxication with CCl4. In kind it is in vivo, rat. Particulars: CCl4 + Ad-Met 15 mg/kg/i.p.; average ± E.S. of 10 values. The text has this: This was confirmed by successive pharmacological tests. […] Hepatic phospholipids in rats after intoxication with CCl4 and treatment with SAM.

Counter-ions that a name gives are not always drawn. Like-named read-outs stand apart in the source and are kept apart here. Where only a bound is given, the exact number is not on record here.

Turning to `N[C@@H](Cc1ccc(O)c(O)c1)C(=O)O` [Levodopa, reference compound], the Parkinson tremor entry in data set [1] is “cannot be modified”. Take `C[S+](CC[C@H](N)C(=O)O)C[C@H]1O[C@@H](n2cnc3c(N)ncnc32)[C@H](O)[C@@H]1O` (stereo partly drawn) [Sulphate]: the “percentage of SAM residue” value in data set [2] (720 h) was found to be 50%; in data set [2] (1440 h) it was 5%. In the case of `C[S+](CC[C@H](N)C(=O)O)C[C@H]1O[C@@H](n2cnc3c(N)ncnc32)[C@H](O)[C@@H]1O` (stereo partly drawn) [Chloride], the “percentage of SAM residue” value in data set [2] (720 h) was 20%.

On to `C[S+](CC[C@H](N)C(=O)O)C[C@H]1O[C@@H](n2cnc3c(N)ncnc32)[C@H](O)[C@@H]1O` (stereo partly drawn) [SAM salt], for which the toxicity result in data set [3] is on record as “absolutely free from acute toxicity, chronic toxicity, local intolerance or secondary effects”. For the same compound, the LD50 was above 2500 mg/kg in data set [4] (ip) and above 6000 mg/kg in data set [4] (po, os). For `C[S+](CC[C@H](N)C(=O)O)C[C@H]1O[C@@H](n2cnc3c(N)ncnc32)[C@H](O)[C@@H]1O.Cc1ccc(S(=O)(=O)O)cc1.O=S(=O)(O)O.O=S(=O)([O-])O` (stereo partly drawn) [di-sulphate mono-p.toluenesulphonate], the “stability values compared with di-sulphate di-p.toluenesulphonate” value in data set [5] was “completely equivalent”.

Regarding `C[S+](CC[C@H](N)C(=O)[O-])C[C@H]1O[C@@H](n2cnc3c(N)ncnc32)[C@H](O)[C@@H]1O` (stereo partly drawn) [Ad-Met, reference compound], in data set [6], the Total phospholipids worked out at 19.9 ± 0.92 mg/g.
